pIC50: −log10 of the molar value.
System: 415267-285-R-J2-PDC complex spheroid viability
Experiment: Anticancer human tumor 415267-285-R-J2-PDC patient-derived breast carcinoma cell line growth inhibition [POLQ]
Conditions: for pIC50: curve of first compound; for viability, T/C: stronger effect = lower value
Summary of the method: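 Complex spheroid viability model combining PDC tumour cells with endothelial (HUVEC) and MSC stromal cells. Novobiocin, ART-558 or RP6685 were tested singly and in combination with standard and investigational anticancer drugs. Each was titrated in half-log steps from near clinical Cmax, or from 10 microM where Cmax was unknown.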

[1] = second compound 0.0316 µM, first compound 0.0316 µM
[2] = second compound 0.0316 µM, first compound 0.1 µM
[3] = second compound 0.0316 µM, first compound 0.316 µM
[4] = second compound 0.0316 µM, first compound 1 µM
[5] = second compound 0.0316 µM, first compound 3.16 µM
[6] = second compound 0.0316 µM, first compound 10 µM
[7] = second compound 0.1 µM, first compound 0.0316 µM
[8] = second compound 0.1 µM, first compound 0.1 µM
[9] = second compound 0.1 µM, first compound 0.316 µM
[10] = second compound 0.1 µM, first compound 1 µM
[11] = second compound 0.1 µM, first compound 3.16 µM
[12] = second compound 0.1 µM, first compound 10 µM
[13] = second compound 0.316 µM, first compound 0.0316 µM
[14] = second compound 0.316 µM, first compound 0.1 µM
[15] = second compound 0.316 µM, first compound 0.316 µM
[16] = second compound 0.316 µM, first compound 1 µM
[17] = second compound 0.316 µM, first compound 3.16 µM
[18] = second compound 0.316 µM, first compound 10 µM
[19] = second compound 1 µM, first compound 0.0316 µM
[20] = second compound 1 µM, first compound 0.1 µM
[21] = second compound 1 µM, first compound 0.316 µM
[22] = second compound 1 µM, first compound 1 µM
[23] = second compound 1 µM, first compound 3.16 µM
[24] = second compound 1 µM, first compound 10 µM
[25] = second compound 3.16 µM, first compound 0.0316 µM
[26] = second compound 3.16 µM, first compound 0.1 µM
[27] = second compound 3.16 µM, first compound 0.316 µM
[28] = second compound 3.16 µM, first compound 1 µM
[29] = second compound 3.16 µM, first compound 3.16 µM
[30] = second compound 3.16 µM, first compound 10 µM
[31] = second compound 10 µM, first compound 0.0316 µM
[32] = second compound 10 µM, first compound 0.1 µM
[33] = second compound 10 µM, first compound 0.316 µM
[34] = second compound 10 µM, first compound 1 µM
[35] = second compound 10 µM, first compound 3.16 µM
[36] = second compound 10 µM, first compound 10 µM
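Also: spheroids exposed to compounds for one week before readout.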
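For viability, T/C in this document: luminescence used as stand-in measure of viable cells; 100% = DMSO vehicle control viability.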

C#Cc1c(F)ccc2cc(O)cc(-c3ncc4c(N5CC6CCC(C5)N6)nc(OCC56CCCN5CC(F)C6)nc4c3F)c12 (centres undefined) + COC1C(OC(N)=O)C(O)C(Oc2ccc3c(O)c(NC(=O)c4ccc(O)c(CC=C(C)C)c4)c(=O)oc3c2C)OC1(C)C
pIC50 (second compound 0.0316 µM): < 5.00 | pIC50 (second compound 0.1 µM): < 5.00 | pIC50 (second compound 0.316 µM): < 5.00 | pIC50 (second compound 1 µM): < 5.00 | pIC50 (second compound 3.16 µM): < 5.00 | pIC50 (second compound 10 µM): < 5.00 | viability, T/C [1]: 101% | viability, T/C [2]: 95.3% | viability, T/C [3]: 103% | viability, T/C [4]: 95.4% | viability, T/C [5]: 97.7% | viability, T/C [6]: 101% | viability, T/C [7]: 97.6% | viability, T/C [8]: 91.9% | viability, T/C [9]: 102% | viability, T/C [10]: 103% | viability, T/C [11]: 101% | viability, T/C [12]: 110% | viability, T/C [13]: 97.7% | viability, T/C [14]: 103% | viability, T/C [15]: 104% | viability, T/C [16]: 95.3% | viability, T/C [17]: 99.3% | viability, T/C [18]: 100% | viability, T/C [19]: 84.9% | viability, T/C [20]: 92% | viability, T/C [21]: 91.2% | viability, T/C [22]: 104% | viability, T/C [23]: 102% | viability, T/C [24]: 96.7% | viability, T/C [25]: 100% | viability, T/C [26]: 111% | viability, T/C [27]: 92.1% | viability, T/C [28]: 111% | viability, T/C [29]: 94.5% | viability, T/C [30]: 91.4% | viability, T/C [31]: 95.3% | viability, T/C [32]: 105% | viability, T/C [33]: 98.4% | viability, T/C [34]: 98% | viability, T/C [35]: 91.8% | viability, T/C [36]: 103%

CC1COCCN1c1cc(C2(O)CC3CCC(C2)O3)c2cnn(-c3ccn[nH]3)c2n1 (centres undefined) + COC1C(OC(N)=O)C(O)C(Oc2ccc3c(O)c(NC(=O)c4ccc(O)c(CC=C(C)C)c4)c(=O)oc3c2C)OC1(C)C
pIC50 (second compound 0.0316 µM): > 7.50 | pIC50 (second compound 0.1 µM): > 7.50 | pIC50 (second compound 0.316 µM): > 7.50 | pIC50 (second compound 1 µM): > 7.50 | pIC50 (second compound 3.16 µM): > 7.50 | pIC50 (second compound 10 µM): > 7.50 | viability, T/C [1]: 17.2% | viability, T/C [2]: 6.83% | viability, T/C [3]: 8.23% | viability, T/C [4]: 5.44% | viability, T/C [5]: 4.27% | viability, T/C [6]: 4.51% | viability, T/C [7]: 17.1% | viability, T/C [8]: 6.51% | viability, T/C [9]: 4.34% | viability, T/C [10]: 4.52% | viability, T/C [11]: 3.9% | viability, T/C [12]: 4.57% | viability, T/C [13]: 22.7% | viability, T/C [14]: 9.96% | viability, T/C [15]: 4.64% | viability, T/C [16]: 3.57% | viability, T/C [17]: 5.27% | viability, T/C [18]: 4% | viability, T/C [19]: 27.2% | viability, T/C [20]: 6.76% | viability, T/C [21]: 4.22% | viability, T/C [22]: 4.87% | viability, T/C [23]: 4.41% | viability, T/C [24]: 3.65% | viability, T/C [25]: 21% | viability, T/C [26]: 8.52% | viability, T/C [27]: 4.99% | viability, T/C [28]: 4.02% | viability, T/C [29]: 4.45% | viability, T/C [30]: 4.43% | viability, T/C [31]: 29.5% | viability, T/C [32]: 7.77% | viability, T/C [33]: 5.61% | viability, T/C [34]: 5.07% | viability, T/C [35]: 4.2% | viability, T/C [36]: 4.18%
